From patent US20260256792A1, “TREATMENT OF CHRONIC SPONTANEOUS URTICARIA BY ADMINISTERING (R)-2-[3-[4-AMINO-3-(2-FLUORO-4-PHENOXY-PHENYL)PYRAZOLO[3,4-D]PYRIMIDIN-1-YL]PIPERIDINE-1-CARBONYL]-4-METHYL-4-[4-(OXETAN-3-YL)PIPERAZIN-1-YL]PENT-2-ENENITRILE” (priority 2023, published 2026)

System: moderate-to-severe chronic spontaneous urticaria (CSU)
Assay: Phase 2 CSU study: itch severity score over 7 days (ISS7)
Format: in vivo, human
From the text: The study comprises a 12 week, randomized, double-blind, placebo-controlled, multi-center, dose-ranging efficacy and safety phase, followed by a 40 week open label extension (OLE) phase (see FIG. 1). The study consists of three phases and an optional OLE phase. […] Clinically, CSU is characterized by the spontaneous and recurrent appearance of pruritic hives. The proposed primary endpoints were the UAS7 at Week 12 in EU and EU reference countries and the ISS7 in the US. Regardless of where a participant was from, all assessments were the same. The UAS7 score is a composite score containing both the HSS7 and the ISS7. This allowed a global assessment of the two key components of urticaria: hives and itch. […] The UAS is a validated PRO measure. […] The daily UAS scores range from 0 to 6 point/day. […] Patients were to complete the UAS using the e-diary. […] The following secondary endpoints were to be analyzed using the same approach as for the primary endpoint: • Change from baseline in UAS7 at Week 4 • Change from baseline in UAS7 at Week 12 (for US and US reference countries) • Change from baseline in ISS7 at Week 12 (except US and US reference countries) • Change from baseline in HSS7 at Week 12

[1] = Omalizumab-naïve population, 400 mg BID (N = 35), double-blind period, last week block of Table 28 (week head not shown), WOCF imputation
[2] = Omalizumab-naïve population, 400 mg QPM (N = 37), double-blind period, last week block of Table 28 (week head not shown), WOCF imputation
[3] = Omalizumab-naïve population, 400 mg TID (N = 35), double-blind period, last week block of Table 28 (week head not shown), WOCF imputation
[4] = Patients with prior omalizumab use incl. incomplete responders, 400 mg TID (N = 6), double-blind period, last week block of Table 28 (week head not shown), WOCF imputation
[5] = Week 1, 400 mg BID, Omalizumab-Naïve
[6] = Week 1, 400 mg BID, Prior Omalizumab Use
[7] = Week 1, 400 mg QPM, Omalizumab-Naïve
[8] = Week 1, 400 mg QPM, Prior Omalizumab Use
[9] = Week 1, 400 mg TID, Omalizumab-Naïve
[10] = Week 1, 400 mg TID, Prior Omalizumab Use
[11] = Week 2, 400 mg BID, Omalizumab-Naïve

CC(C)(C=C(C#N)C(=O)N1CCC[C@@H](n2nc(-c3ccc(Oc4ccccc4)cc3F)c3c(N)ncnc32)C1)N1CCN(C2COC2)CC1 [rilzabrutinib, (R)-2-[3-[4-amino-3-(2-fluoro-4-phenoxy-phenyl)pyrazolo[3,4-d]pyrimidin-1-yl]piperidine-1-carbonyl]-4-methyl-4-[4-(oxetan-3-yl)piperazin-1-yl]pent-2-enenitrile]
ISS7 Post-baseline Mean (SD) (Omalizumab-Naïve, 400 mg TID, Week 5): 6.92 (5.87) | ISS7 Post-baseline Mean (SD) (Omalizumab-Naïve, 400 mg TID, Week 7): 7.14 (5.35) | ISS7 Post-baseline Mean (SD) (Omalizumab-Naïve, 400 mg TID, Week 8): 7.24 (5.51) | ISS7 Post-baseline Mean (SD) (Omalizumab-Naïve, 400 mg TID, Week 9): 6.68 (5.31) | ISS7 Post-baseline Mean (SD) (Omalizumab-Naïve, 400 mg TID, Week 10): 6.75 (5.25) | ISS7 Post-baseline Mean (SD) (Omalizumab-Naïve, 400 mg TID, Week 11): 6.99 (5.53) | ISS7 Post-baseline Mean (SD) (Omalizumab-Naïve, 400 mg TID, Week 12): 5.77 (5.26) | ISS7 Change from baseline Mean (SD) [1]: −6.60 (7.33) | ISS7 Change from baseline Median [1]: −8.00 | ISS7 Percent change from baseline Mean (SD) [1]: −46.22 (56.25) % | ISS7 Percent change from baseline Median [1]: −53.33% | ISS7 change from baseline, Max [1]: 2.0 | ISS7 change from baseline, Min [1]: −14.0 | ISS7 change from baseline, Q1 [1]: −13.00 | ISS7 change from baseline, Q3 [1]: 0.00 | ISS7 percent change from baseline, Max [1]: 22.2% | ISS7 percent change from baseline, Min [1]: −100.0% | ISS7 percent change from baseline, Q1 [1]: −100.00% | ISS7 percent change from baseline, Q3 [1]: 0.00% | ISS7 Change from baseline Mean (SD) [2]: −11.40 (8.46) | ISS7 Change from baseline Median [2]: −14.00 | ISS7 Percent change from baseline Mean (SD) [2]: −66.19 (45.96) % | ISS7 Percent change from baseline Median [2]: −83.33% | ISS7 change from baseline, Max [2]: 0.0 | ISS7 change from baseline, Min [2]: −20.0 | ISS7 change from baseline, Q1 [2]: −19.00 | ISS7 change from baseline, Q3 [2]: 0.00 | ISS7 percent change from baseline, Max [2]: 0.0% | ISS7 percent change from baseline, Min [2]: −100.0% | ISS7 percent change from baseline, Q1 [2]: −100.00% | ISS7 percent change from baseline, Q3 [2]: 0.00% | ISS7 Change from baseline Mean (SD) [3]: −6.20 (3.70) | ISS7 Change from baseline Median [3]: −7.00 | ISS7 Percent change from baseline Mean (SD) [3]: −38.05 (24.78) % | ISS7 Percent change from baseline Median [3]: −47.37% | ISS7 change from baseline, Max [3]: 0.0 | ISS7 change from baseline, Q1 [3]: −9.00 | ISS7 change from baseline, Q3 [3]: −6.00 | ISS7 percent change from baseline, Max [3]: 0.0% | ISS7 percent change from baseline, Min [3]: −64.3% | ISS7 percent change from baseline, Q1 [3]: −50.00% | ISS7 percent change from baseline, Q3 [3]: −28.57% | ISS7 Change from baseline Mean (SD) [4]: −1.50 (2.12) | ISS7 Change from baseline Median [4]: −1.50 | ISS7 Percent change from baseline Mean (SD) [4]: −18.75 (26.52) % | ISS7 Percent change from baseline Median [4]: −18.75% | ISS7 change from baseline, Max [4]: 0.0 | ISS7 change from baseline, Min [4]: −3.0 | ISS7 change from baseline, Q1 [4]: −3.00 | ISS7 change from baseline, Q3 [4]: 0.00 | ISS7 percent change from baseline, Max [4]: 0.0% | ISS7 percent change from baseline, Min [4]: −37.5% | ISS7 percent change from baseline, Q1 [4]: −37.50% | ISS7 percent change from baseline, Q3 [4]: 0.00% | ISS7 Change from baseline Mean (SD) [5]: −4.94 (4.65) | ISS7 Change from baseline Median [5]: −4.00 | ISS7 Median [5]: 12.00 | ISS7 Percent change from baseline Mean (SD) [5]: −33.91 (34.62) % | ISS7 Percent change from baseline Median [5]: −25.00% | ISS7 Change from baseline Mean (SD) [6]: −6.33 (5.82) | ISS7 Change from baseline Median [6]: −4.50 | ISS7 Median [6]: 13.00 | ISS7 Percent change from baseline Mean (SD) [6]: −35.93 (34.83) % | ISS7 Percent change from baseline Median [6]: −23.02% | ISS7 Change from baseline Mean (SD) [7]: −3.30 (4.93) | ISS7 Change from baseline Median [7]: −3.00 | ISS7 Mean (SD) [7]: 13.08 (4.52) | ISS7 Median [7]: 14.00 | ISS7 Percent change from baseline Mean (SD) [7]: −17.96 (28.66) % | ISS7 Percent change from baseline Median [7]: −19.05% | ISS7 Change from baseline Mean (SD) [8]: −8.00 (NC) | ISS7 Change from baseline Median [8]: −8.00 | ISS7 Mean (SD) [8]: 13.00 (NC) | ISS7 Median [8]: 13.00 | ISS7 Percent change from baseline Mean (SD) [8]: −38.10 (NC) % | ISS7 Percent change from baseline Median [8]: −38.10% | ISS7 Change from baseline Mean (SD) [9]: −6.17 (5.49) | ISS7 Change from baseline Median [9]: −5.00 | ISS7 Mean (SD) [9]: 9.51 (5.64) | ISS7 Median [9]: 9.00 | ISS7 Percent change from baseline Mean (SD) [9]: −38.58 (33.51) % | ISS7 Percent change from baseline Median [9]: −31.37% | ISS7 Change from baseline Mean (SD) [10]: −9.67 (5.32) | ISS7 Change from baseline Median [10]: −9.00 | ISS7 Mean (SD) [10]: 7.33 (5.43) | ISS7 Median [10]: 7.00 | ISS7 Percent change from baseline Mean (SD) [10]: −58.16 (26.72) % | ISS7 Percent change from baseline Median [10]: −66.07% | ISS7 Change from baseline Mean (SD) [11]: −5.00 (4.40) | ISS7 Change from baseline Median [11]: −5.00 | ISS7 Mean (SD) [11]: 10.32 (5.64)
